Measured values from patent US20160031855A1, “PROTEIN KINASE INHIBITORS” (ORION CORPORATION, priority 2013, published 2016).

Biological target: T1, FGFR1 kinase (Homo sapiens, UniProt P11362)
T1 construct: purchased Upstate, USA
Experiment: TR-FRET assay with FGFR1 kinase
Assay type: biochemical
Conditions: 13 μM ATP; for IC50: dose response, read-out: IC50 of FGFR1 inhibition; for inhibition at 1 µM: compound at 1000 nM
Protocol: 1. Inhibition of FGFR1 kinase
Compounds were screened in the TR-FRET assay with FGFR1 kinase. 5 ng of FGFR1 [Upstate, USA] kinase was used for assay. The compound was incubated with the kinase for 30 minutes at room temperature. After the incubation, substrate mix [40 nM Ultra light poly GT (Perkin Elmer, USA) and 13 μM ATP (Sigma)] was added. The above reaction was stopped by the addition of 40 mM EDTA after the 30 min kinase reaction. The Eu-labelled antiphospho-tyrosine antibody [Perkin Elmer, USA] was added at 0.5 nM and the fluorescence emission at 615 nm/665 nm [excitation at 340 nm] was measured. The compounds were initially screened at 100 nM and 1 μM concentrations. The compounds with >50% inhibition at 100 nM of FGFR1 were taken for the full dose response studies. The final DMSO concentration in the assay was 1%. For IC50 determination, ⅓^rd serial dilution was made from the 20 mM DMSO stock solution. 2 μl of these were transferred to the test wells containing […] of the reaction mixture [total reaction volume 20 μl]. The fluorescence was measured in Perkin Elmer Wallac 1420 Multilabel Counter Victor 3. The IC50 was determined by fitting the dose response data to sigmoidal curve fitting equation using GraphPad Prism software V5.

T1 sequence (P11362 22-822): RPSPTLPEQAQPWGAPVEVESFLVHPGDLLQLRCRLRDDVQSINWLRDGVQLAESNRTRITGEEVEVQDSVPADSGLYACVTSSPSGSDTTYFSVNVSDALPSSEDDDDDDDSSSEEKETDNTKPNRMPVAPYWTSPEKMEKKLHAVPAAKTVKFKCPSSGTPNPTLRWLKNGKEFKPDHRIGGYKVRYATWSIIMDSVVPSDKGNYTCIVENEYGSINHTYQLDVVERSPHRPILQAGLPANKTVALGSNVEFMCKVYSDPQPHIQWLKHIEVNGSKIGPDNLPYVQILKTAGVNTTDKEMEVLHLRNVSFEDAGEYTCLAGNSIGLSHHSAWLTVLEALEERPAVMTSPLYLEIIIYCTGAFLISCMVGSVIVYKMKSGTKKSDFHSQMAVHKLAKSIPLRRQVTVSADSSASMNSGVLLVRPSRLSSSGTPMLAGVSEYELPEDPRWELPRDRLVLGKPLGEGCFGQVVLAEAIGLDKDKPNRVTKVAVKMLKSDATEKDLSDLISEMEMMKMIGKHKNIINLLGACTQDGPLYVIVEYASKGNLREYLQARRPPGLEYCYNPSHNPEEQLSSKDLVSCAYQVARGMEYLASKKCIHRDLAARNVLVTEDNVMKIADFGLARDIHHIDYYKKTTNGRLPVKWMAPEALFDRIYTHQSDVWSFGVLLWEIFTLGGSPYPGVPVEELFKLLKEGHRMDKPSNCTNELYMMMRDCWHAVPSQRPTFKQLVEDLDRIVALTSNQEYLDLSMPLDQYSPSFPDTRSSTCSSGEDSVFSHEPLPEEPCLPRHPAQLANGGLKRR

Row | IC50 [nM] | inhibition at 1 µM [%] | Compound
1 | 2 | 99 | CCn1cc(-c2ccc3c(c2)ncn3-c2cc(-c3ccc(F)cc3F)cc(NS(=O)(=O)C3CC3)n2)nn1 [Example 35, N-(4-(2,4-difluorophenyl)-6-(5-(1-ethyl-1H-1,2,3-triazol-4-yl)-1H-benzo[d]-imidazol-1-yl)pyridin-2-yl)cyclopropanesulfonamide]
2 | 4.7 | 99 | Cn1cc(-c2ccc3c(c2)ncn3-c2cc(-c3ccc(F)cc3F)cc(NS(=O)(=O)C3CC3)n2)nn1 [Example 36, N-(4-(2,4-difluorophenyl)-6-(5-(1-methyl-1H-1,2,3-triazol-4-yl)-1H-benzo[d]-imidazol-1-yl)pyridin-2-yl)cyclopropanesulfonamide]
3 | 1.3 | 99 | Cn1cnc(-c2ccc3c(c2)ncn3-c2cc(-c3ccc(F)cc3F)cc(NS(=O)(=O)C3CC3)n2)c1 [Example 37, N-(4-(2,4-difluorophenyl)-6-(5-(1-methyl-1H-imidazol-4-yl)-1H-benzo[d]-imidazol-1-yl)pyridin-2-yl)cyclopropanesulfonamide]
4 | 294 | 81 | CCOC(=O)c1cn(-c2ccc3c(c2)ncn3-c2cc(-c3ccc(F)cc3F)cc(NS(=O)(=O)C3CC3)n2)nn1 [Example 39, Ethyl 1-(1-(6-(cyclopropanesulfonamido)-4-(2,4-difluorophenyl)pyridin-2-yl)-1H-benzo[d]imidazol-5-yl)-1H-1,2,3-triazole-4-carboxylate]

More lines, now with the values behind:

Row | Compound | IC50 [nM] | inhibition at 1 µM [%]
5 | Cn1cc(-c2ccc3c(c2)ncn3-c2cc(-c3ccccc3Cl)cc(NS(=O)(=O)C3CC3)n2)cn1 [Example 28, N-(4-(2-chlorophenyl)-6-(5-(1-methyl-1H-pyrazol-4-yl)-1H-benzo[d]imidazol-1-yl)pyridin-2-yl)cyclopropanesulfonamide] | 7.2 | 97
6 | Cn1cc(-c2ccc3c(c2)ncn3-c2cc(-c3ncccc3Cl)cc(NS(=O)(=O)C3CC3)n2)cn1 [Example 29, N-(3-chloro-6′-(5-(1-methyl-1H-pyrazol-4-yl)-1H-benzo[d]imidazol-1-yl)-[2,4′-bipyridin]-2′-yl)cyclopropanesulfonamide] | 9.7 | 97
7 | Cn1cc(-c2ccc3c(c2)ncn3-c2cc(-c3ccc(F)cn3)cc(NS(=O)(=O)C3CC3)n2)cn1 [Example 30, N-(5-fluoro-6′-(5-(1-methyl-1H-pyrazol-4-yl)-1H-benzo[d]imidazol-1-yl)-[2,4′-bipyridin]-2′-yl)cyclopropanesulfonamide] | 24 | 96
8 | O=S(=O)(Nc1cc(-c2ccc(F)cc2F)cc(-n2cnc3cc(-n4ccnc4)ccc32)n1)C1CC1 [Example 32, N-(6-(5-(1H-imidazol-1-yl)-1H-benzo[d]imidazol-1-yl)-4-(2,4-difluorophenyl)-pyridin-2-yl)cyclopropanesulfonamide] | 21.7 | 99
9 | O=S(=O)(Nc1cc(-c2ccc(F)cc2F)cc(-n2cnc3cc(-c4cnn(CCN5CCOCC5)c4)ccc32)n1)C1CC1 [Example 33, N-(4-(2,4-difluorophenyl)-6-(5-(1-(2-morpholinoethyl)-1H-pyrazol-4-yl)-1H-benzo[d]imidazol-1-yl)pyridin-2-yl)cyclopropanesulfonamide] | 2 | 99
10 | O=S(=O)(Nc1cc(-c2ccc(F)cc2F)cc(-n2cnc3cc(-c4cnn(C5CCNC5)c4)ccc32)n1)C1CC1 (stereo not shown) [Example 34, N-(4-(2,4-difluorophenyl)-6-(5-(1-(pyrrolidin-3-yl)-1H-pyrazol-4-yl)-1H-benzo[d]imidazol-1-yl)pyridin-2-yl)cyclopropanesulfonamide] | 1.6 | 99
11 | CC(=O)Nc1nc(-c2ccc(F)cc2F)cc(-n2cnc3cc(-c4cnn(C)c4)ccc32)n1 [Example 38, N-(4-(2,4-difluorophenyl)-6-(5-(1-methyl-1H-pyrazol-4-yl)-1H-benzo[d]-imidazol-1-yl)pyrimidin-2-yl)acetamide] | 12 | 87
12 | Cn1cc(-c2ccc3c(c2)ncn3-c2cc(-c3ccc(F)cc3OC(F)F)cc(NS(=O)(=O)C3CC3)n2)cn1 [Example 40, N-(4-(2-(difluoromethoxy)-4-fluorophenyl)-6-(5-(1-methyl-1H-pyrazol-4-yl)-1H-benzo[d]imidazol-1-yl)pyridin-2-yl)cyclopropanesulfonamide] | 293 | 76
13 | Cn1cc(-c2ccc3c(c2)ncn3-c2cc(-c3ccc(F)cc3F)nc(NS(=O)(=O)C3CC3)n2)cn1 [Example 41, N-(4-(2,4-difluorophenyl)-6-(5-(1-methyl-1H-pyrazol-4-yl)-1H-benzo[d]-imidazol-1-yl)pyrimidin-2-yl)cyclopropanesulfonamide] | 32.7 | 93
14 | Cn1cc(-c2ccc3c(c2)ncn3-c2cc(NS(=O)(=O)C3CC3)nc(-c3ccc(F)cc3F)c2)cn1 [Example 43, N-(6-(2,4-difluorophenyl)-4-(5-(1-methyl-1H-pyrazol-4-yl)-1H-benzo[d]-imidazol-1-yl)pyridin-2-yl)cyclopropanesulfonamide] | 43.4 | 94
